Experimental data published in US20220347247A1, “USE OF CANNABINOIDS IN THE TREATMENT OF INFLAMMATION AND AGING IN THE SKIN” (priority 2021, published 2022).
Entries after “also recorded” stand apart in the source; their conditions may differ. Read-outs that look alike come from different tables or passages of the source.

Assays:
PGE2 = PGE2 release by PMA-stimulated NHEK (ELISA); assay type: cell-based, human; conditions: for effect on PGE2 release, in words / % of relative inhibition of PGE2 release / PGE2 release, % of the control: PMA-stimulated keratinocytes; for effect on PGE2 release, in words: overall; for % of relative inhibition of PGE2 release: concentration not given; for PGE2 release, % of the control: highest concentration tested
Description: (§1) Example 1: Effects of six compounds on normal human epidermal keratinocytes The effects on normal human epidermal keratinocytes (NHEK) were measured by assessing IL-8 and PGE2 release by PMA-stimulated NHEK using specific ELISA kits.
(§2) Keratinocytes were seeded in 96-well plates and cultured for 24 hours in culture medium. […] After pre-incubation, the medium was removed and replaced by assay medium 1 containing or not (stimulated control) the compounds or the reference compound and containing the inducer (PMA tested at 0.5 μg/ml). The cells were then incubated for 24 hours. In parallel, a non-stimulated control condition was performed.
(§3) All experimental conditions were performed in n=3. At the end of incubation, the culture supernatants were collected for IL-8 and PGE2 quantifications.
(§4) IL-8 and PGE2 released in the culture supernatants were measured using specific ELISA kits according to the supplier's instructions.

IL-8 = assay: cells; assay type: cell-based, human; conditions: for effect on IL-8 release, in words: PMA-stimulated keratinocytes; for % Relative inhibition of IL-8 release: PMA 0.5 μg/ml
Description: as §1, §2, §3, §4

[1] = Homo sapiens, NHEK, 24 h, read-out: % Relative inhibition of PGE2 release
[2] = Homo sapiens, NHEK, 24 h, read-out: % Relative inhibition of IL-8 release
[3] = 1 μM, NHEK, PMA 0.5 μg/ml, 24 h

CCCCCc1cc(O)c(C/C=C(\C)CCC=C(C)C)c(O)c1 [CBG, cannabigerol]
inhibition at 0.3 µM (PGE2; [1]): 86% | inhibition at 1 µM (PGE2; [1]): > 169% | inhibition at 3 µM (PGE2; [1]): > 159% | effect on PGE2 release, in words (PGE2): significant at all tested concentrations; also recorded: significantly inhibited | % of relative inhibition of PGE2 release (PGE2): about 160% | effect on IL-8 release, in words (IL-8; 3 μM): strongly inhibited | inhibition at 0.3 µM (IL-8; [2]): 7% | inhibition at 1 µM (IL-8; [2]): 20% | inhibition at 3 µM (IL-8; [2]): 60% | effect on IL-8 release, in words (IL-8; overall): significantly inhibited

C=C(C)[C@@H]1CCC(C)=C[C@H]1c1c(O)cc(CCCCC)cc1O [CBD, cannabidiol]
inhibition at 0.1 µM (PGE2; Homo sapiens, 0.1 μM, NHEK, PMA 0.5 μg/ml, 24 h, read-out: % Relative inhibition of PGE2 release): 0% | inhibition at 0.3 µM (PGE2; Homo sapiens, 0.3 μM, NHEK, PMA 0.5 μg/ml, 24 h, read-out: % Relative inhibition of PGE2 release): -59% | effect on PGE2 release, in words (PGE2): stimulate PGE2 expression | PGE2 release, % of the control (PGE2): 185 % of the control | effect on IL-8 release, in words (IL-8; 0.3 μM): overstimulated IL-8 release | inhibition at 0.1 µM (IL-8; [2]): 12% | inhibition at 0.3 µM (IL-8; [2]): -44% | inhibition at 1 µM (IL-8; [2]): 18%

COc1ccc2c(c1)c(CC(=O)O)c(C)n2C(=O)c1ccc(Cl)cc1 [Indomethacin, indomethacin, reference compound]
% Relative inhibition of PGE2 release (PGE2; [3]): >169% | inhibition at 1 µM (PGE2; [1]): > 169%

O=C1O[C@H]([C@@H](O)CO)C(O)=C1O [L-Ascorbic acid, reference compound]
inhibition at 50 µg/mL (PGE2; [1]): > 148% | inhibition at 100 µg/mL (PGE2; [1]): > 160% | inhibition at 200 µg/mL (PGE2; [1]): 127% | effect on PGE2 release, in words (PGE2): overall the same effect at all tested concentrations; also recorded: significantly limited PGE2 release | % of relative inhibition of PGE2 release (PGE2): ~145% | inhibition at 50 µg/mL (IL-8; [2]): -10% | inhibition at 100 µg/mL (IL-8; [2]): 11% | inhibition at 200 µg/mL (IL-8; [2]): -15%

C=C(C)[C@@H]1CCC(C)=C[C@H]1c1c(O)cc(CCCCC)c(C(=O)O)c1O [CBDA, cannabidiolic acid]
inhibition at 0.03 µM (PGE2; [1]): -24% | inhibition at 0.1 µM (PGE2; [1]): -50% | inhibition at 0.3 µM (PGE2; [1]): -20% | effect on PGE2 release, in words (PGE2): did not modulate PGE2 release | inhibition at 0.03 µM (IL-8; [2]): 11% | inhibition at 0.1 µM (IL-8; [2]): 17% | inhibition at 0.3 µM (IL-8; [2]): 0%

CCCCCc1cc(O)c(C/C=C(\C)CCC=C(C)C)c(O)c1C(=O)O [CBGA, cannabigerolic acid]
inhibition at 0.03 µM (PGE2; [1]): -17% | inhibition at 0.1 µM (PGE2; [1]): -68% | effect on PGE2 release, in words (PGE2): stimulate PGE2 expression | PGE2 release, % of the control (PGE2): 182 % of the control | inhibition at 0.03 µM (IL-8; [2]): 0% | inhibition at 0.1 µM (IL-8; [2]): -7% | inhibition at 0.3 µM (IL-8; [2]): 9%

CCCc1cc(O)c(C/C=C(\C)CCC=C(C)C)c(O)c1C(=O)O [CBGVA, cannabigerovarinic acid]
% Relative inhibition of PGE2 release (PGE2; 0.1 μM, NHEK, PMA 0.5 μg/ml, 24 h): 19% | % Relative inhibition of PGE2 release (PGE2; 0.3 μM, NHEK, PMA 0.5 μg/ml, 24 h): 65% | % Relative inhibition of PGE2 release (PGE2; [3]): >162% | effect on PGE2 release, in words (PGE2): significant effect only when tested at the highest concentration; also recorded: inhibited PGE2 release | % of relative inhibition of PGE2 release (PGE2): about 160% | % Relative inhibition of IL-8 release (IL-8; 0.1 μM, NHEK, 24 h): 2% | % Relative inhibition of IL-8 release (IL-8; 0.3 μM, NHEK, 24 h): 11% | % Relative inhibition of IL-8 release (IL-8; 1 μM, NHEK, 24 h): 9%
